Measurements reported in patent US9695155B2, “Herbicidal substituted pyrimidinyloxy benzene compounds” (E. I. DU PONT DE NEMOURS AND COMPANY, priority 2013, dated 2017).

Tests used:
Italian ryegrass [1] = assay: Test A preemergence; type: in vivo, Lolium multiflorum; details: for Plant response rating, Ryegrass, Italian: 0 to 100 scale where 0 is no effect and 100 is complete control
Procedure, shortened: (§1)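 Pre- and postemergence greenhouse screen. Soil: loam + sand. Spray carrier: solvent mixture, non-phytotoxic, with surfactant. Post timing at 1–2 leaves, height 2–10 cm. Readout: visual injury on a 0–100 scale roughly 10 days after application, untreated plants as reference.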

barnyardgrass [2] = assay: Test A postemergence; type: in vivo, Echinochloa crus-galli; details: for Plant response rating, Barnyardgrass: 31 g ai/ha, 0 to 100 scale, 0 no effect, 100 complete control; for Barnyardgrass plant response rating: 125 g ai/ha, 0 to 100 scale where 0 is no effect and 100 is complete control
Procedure, shortened: as §1

kochia [3] = assay: Test A postemergence; type: in vivo, Kochia scoparia; details: for Plant response rating, Kochia: 31 g ai/ha, 0 to 100 scale, 0 no effect, 100 complete control; for Kochia plant response rating: 125 g ai/ha, 0 to 100 scale where 0 is no effect and 100 is complete control
Procedure, shortened: as §1

rice = assay: Test B flooded paddy test; type: in vivo, Oryza sativa; details: Flood, 250 g ai/ha; 0 to 100 scale where 0 is no effect and 100 is complete control
Procedure, shortened: (§2)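 Plants were grown to the 2-leaf stage, then pots were flooded to 3 cm above the soil and compounds were applied directly into the paddy water. That depth was held throughout, and after 13 to 15 days in the greenhouse injury was rated visually against controls on a 0–100 scale (0 no effect, 100 complete control).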

ragweed [4] = assay: Test A postemergence; type: in vivo, Ambrosia elatior; details: for Plant response rating, Ragweed: 31 g ai/ha, 0 to 100 scale, 0 no effect, 100 complete control; for Ragweed plant response rating: 125 g ai/ha, 0 to 100 scale where 0 is no effect and 100 is complete control
Procedure, shortened: as §1

Italian ryegrass [5] = assay: Test A postemergence; type: in vivo, Lolium multiflorum; details: for Plant response rating, Ryegrass, Italian: 31 g ai/ha, 0 to 100 scale, 0 no effect, 100 complete control; for Ryegrass, Italian plant response rating: 125 g ai/ha, 0 to 100 scale where 0 is no effect and 100 is complete control
Procedure, shortened: as §1

kochia [6] = assay: Test A preemergence; type: in vivo, Kochia scoparia; details: for Plant response rating, Kochia: 0 to 100 scale where 0 is no effect and 100 is complete control
Procedure, shortened: as §1

pigweed [7] = assay: Test A preemergence; type: in vivo, Amaranthus retroflexus; details: for Plant response rating, Pigweed: 0 to 100 scale where 0 is no effect and 100 is complete control
Procedure, shortened: as §1

galium = assay: Test A postemergence; type: in vivo, Galium aparine; details: for Plant response rating, Galium: 31 g ai/ha, 0 to 100 scale, 0 no effect, 100 complete control; for Galium plant response rating: 125 g ai/ha, 0 to 100 scale where 0 is no effect and 100 is complete control
Procedure, shortened: as §1

giant foxtail [8] = assay: Test A preemergence; type: in vivo, Setaria faberii; details: for Plant response rating, Foxtail, Giant: 0 to 100 scale where 0 is no effect and 100 is complete control
Procedure, shortened: as §1

blackgrass = assay: Test A postemergence; type: in vivo, Alopecurus myosuroides; details: for Plant response rating, Blackgrass: 31 g ai/ha, 0 to 100 scale, 0 no effect, 100 complete control; for Blackgrass plant response rating: 125 g ai/ha, 0 to 100 scale where 0 is no effect and 100 is complete control
Procedure, shortened: as §1

ragweed [9] = assay: Test A preemergence; type: in vivo, Ambrosia elatior; details: for Plant response rating, Ragweed: 0 to 100 scale where 0 is no effect and 100 is complete control
Procedure, shortened: as §1

sedge, umbrella = assay: Test B flooded paddy test; type: in vivo, Cyperus difformis; details: Flood, 250 g ai/ha; 0 to 100 scale where 0 is no effect and 100 is complete control
Procedure, shortened: as §2

wheat = assay: Test A postemergence; type: in vivo, Triticum aestivum; details: for Plant response rating, Wheat: 31 g ai/ha, 0 to 100 scale, 0 no effect, 100 complete control; for Wheat plant response rating: 125 g ai/ha, 0 to 100 scale where 0 is no effect and 100 is complete control
Procedure, shortened: as §1

barnyardgrass [10] = assay: Test B flooded paddy test; type: in vivo, Echinochloa crus-galli; details: Flood, 250 g ai/ha; 0 to 100 scale where 0 is no effect and 100 is complete control
Procedure, shortened: as §2

Heteranthera limosa = assay: Test B flooded paddy test; type: in vivo; details: Flood, 250 g ai/ha; 0 to 100 scale where 0 is no effect and 100 is complete control
Procedure, shortened: as §2

giant foxtail [11] = assay: Test A postemergence; type: in vivo, Setaria faberii; details: for Plant response rating, Foxtail, Giant: 31 g ai/ha, 0 to 100 scale, 0 no effect, 100 complete control; for Foxtail, Giant plant response rating: 125 g ai/ha, 0 to 100 scale where 0 is no effect and 100 is complete control
Procedure, shortened: as §1

barnyardgrass [12] = assay: Test A preemergence; type: in vivo, Echinochloa crus-galli; details: for Plant response rating, Barnyardgrass: 0 to 100 scale where 0 is no effect and 100 is complete control
Procedure, shortened: as §1

pigweed [13] = assay: Test A postemergence; type: in vivo, Amaranthus retroflexus; details: for Plant response rating, Pigweed: 31 g ai/ha, 0 to 100 scale, 0 no effect, 100 complete control; for Pigweed plant response rating: 125 g ai/ha, 0 to 100 scale where 0 is no effect and 100 is complete control
Procedure, shortened: as §1

corn = assay: Test A postemergence; type: in vivo, Zea mays; details: for Plant response rating, Corn: 31 g ai/ha, 0 to 100 scale, 0 no effect, 100 complete control; for Corn plant response rating: 125 g ai/ha, 0 to 100 scale where 0 is no effect and 100 is complete control
Procedure, shortened: as §1

[14] = 31 g ai/ha, visual, approximately 10 days

Row | Structure (SMILES) | Plant response rating, Ryegrass, Italian (Italian ryegrass [1]; 125 g ai/ha) | Plant response rating, Barnyardgrass (barnyardgrass [2]) | Barnyardgrass plant response rating (barnyardgrass [2]) | Plant response rating, Kochia (kochia [3]) | Kochia plant response rating (kochia [3]) | Plant response rating, Rice (rice) | Plant response rating, Ragweed (ragweed [4]) | Ragweed plant response rating (ragweed [4]) | Plant response rating, Ryegrass, Italian (Italian ryegrass [5]) | Ryegrass, Italian plant response rating (Italian ryegrass [5]) | Plant response rating, Kochia (kochia [6]; 125 g ai/ha) | Plant response rating, Pigweed (pigweed [7]; 125 g ai/ha) | Plant response rating, Galium (galium) | Galium plant response rating (galium) | Plant response rating, Foxtail, Giant (giant foxtail [8]; 125 g ai/ha) | Plant response rating, Blackgrass (blackgrass) | Blackgrass plant response rating (blackgrass) | Plant response rating, Ragweed (ragweed [9]; 125 g ai/ha) | Plant response rating, Sedge, Umbrella (sedge, umbrella) | Plant response rating, Wheat (wheat) | also measured
1 | Fc1cnc(Oc2cccc(F)c2-n2cc(OCC(F)(F)F)cn2)nc1 [Compound 126] | 0 | 10 | 40 | 40 | 100 | 0 | 10 | 50 | 0 | 10 | 90 | 100 | 20 | 60 | 100 | 10 | 20 | 20 | 20 | 0 | Ryegrass, Italian plant response rating (0 to 100 scale) (Italian ryegrass [1]; 31 g ai/ha): 0; Kochia plant response rating (0 to 100 scale) (kochia [6]; 31 g ai/ha): 40; Pigweed plant response rating (0 to 100 scale) (pigweed [7]; 31 g ai/ha): 80; Foxtail, Giant plant response rating (0 to 100 scale) (giant foxtail [8]; 31 g ai/ha): 50; Ragweed plant response rating (0 to 100 scale) (ragweed [9]; 31 g ai/ha): 0; Wheat plant response rating (wheat): 10; Plant response rating, Barnyardgrass (barnyardgrass [10]): 0; Plant response rating, Ducksalad (Heteranthera limosa): 65; Plant response rating, Foxtail, Giant (giant foxtail [11]): 10; Foxtail, Giant plant response rating (giant foxtail [11]): 50; Barnyardgrass plant response rating (0 to 100 scale) (barnyardgrass [12]; 31 g ai/ha): 10; Plant response rating, Barnyardgrass (barnyardgrass [12]; 125 g ai/ha): 80; Plant response rating, Pigweed (pigweed [13]): 50; Pigweed plant response rating (pigweed [13]): 80; Plant response rating, Corn (corn): 0; Corn plant response rating (corn): 20
2 | FC(F)(F)COc1cnn(-c2c(Br)cccc2Oc2ncc(Cl)cn2)c1 [Compound 128] | 10 | 10 | 50 | 50 | 80 | 0 | 0 | 20 | 0 | 30 | 70 | 100 | 50 | 80 | 100 | 30 | 40 | 0 | 85 | 0 | Plant response rating, Ryegrass, Italian (Italian ryegrass [1]; [14]): 0; Plant response rating, Kochia (kochia [6]; [14]): 0; Plant response rating, Pigweed (pigweed [7]; [14]): 100; Plant response rating, Foxtail, Giant (giant foxtail [8]; [14]): 60; Plant response rating, Ragweed (ragweed [9]; [14]): 0; Wheat plant response rating (wheat): 10; Plant response rating, Barnyardgrass (barnyardgrass [10]): 0; Plant response rating, Ducksalad (Heteranthera limosa): 85; Plant response rating, Foxtail, Giant (giant foxtail [11]): 20; Foxtail, Giant plant response rating (giant foxtail [11]): 60; Plant response rating, Barnyardgrass (barnyardgrass [12]; [14]): 10; Plant response rating, Barnyardgrass (barnyardgrass [12]; 125 g ai/ha): 70; Plant response rating, Pigweed (pigweed [13]): 80; Pigweed plant response rating (pigweed [13]): 100; Plant response rating, Corn (corn): 0; Corn plant response rating (corn): 30
